What follows are compounds tested against T1, recombinant human mPGES-1 (Homo sapiens, UniProt O14684) (assay: mPGES-1 inhibition test (microsomes, PGH2 substrate, HTRF detection of PGE2)). Details: inhibition of mPGES-1 at 1 μM (marked in cell).
T1 construct: made in house; host or cells: Rosetta E. coli (microsomal/membrane fraction)
T1 sequence (O14684 1-152): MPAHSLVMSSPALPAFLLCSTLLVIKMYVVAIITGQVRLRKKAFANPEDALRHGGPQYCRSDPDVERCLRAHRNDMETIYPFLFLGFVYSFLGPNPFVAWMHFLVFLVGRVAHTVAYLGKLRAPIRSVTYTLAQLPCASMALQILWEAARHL
Type: biochemical
Procedure, shortened: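 Bacterial microsomes with GSH-containing phosphate buffer at pH 7.4 are exposed to test compounds for 25 minutes before a one-minute PGH2 conversion. The quenched, 750-fold diluted mixture is analysed by time-resolved FRET for PGE2.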

Row | inhibition at 1 µM [%] | Structure (SMILES)
1 | 98 | COc1cc2[nH]c(Nc3c(Cl)ccc(C)c3F)nc2cc1C(=O)NC1CCCCC1 [Example 628, 2-(6-Chloro-2-fluoro-3-methyl-phenylamino)-6-methoxy-N-cyclohexyl-1H-benzimidazole-5-carboxamide]
2 | 99 | CC(C)Oc1cc2c(cc1C(=O)NC1CCC(C)(C)CC1)nc(Nc1c(Cl)ccc(Cl)c1F)n2C [Example 625, 2-(3,6-Dichloro-2-fluoro-phenylamino)-6-isopropoxy-N-(4,4-dimethyl-cyclohex-1-yl)-1-methyl-1H-benzimidazole-5-carboxamide]
3 | 97 | COc1cc2c(cc1C(=O)N[C@H]1CC[C@H](C(F)(F)F)CC1)nc(Nc1c(Cl)ccc(C)c1F)n2C [Example 647, 2-(6-Chloro-2-fluoro-3-methyl-phenylamino)-6-methoxy-N-(trans-4-trifluoromethyl-cyclohex-1-yl)-1-methyl-1H-benzimidazole-5-carboxamide]

Same assay, conditions: inhibition of mPGES-1 at 10 μM

Row | inhibition at 10 µM [%] | Structure (SMILES)
4 | 100 | CCCCCNC(=O)c1cc2nc(Nc3c(Cl)cccc3Cl)n(C)c2cc1F [Example 391, 2-(2,6-Dichlorophenylamino)-6-fluoro-1-methyl-N-pentyl-1H-benzimidazole-5-carboxamide]
5 | 100 | O=C(Nc1ccc(Cl)c(Cl)c1Cl)c1ccc2[nH]c(Nc3c(Cl)cccc3Cl)nc2c1 [Example 312, 2-(2,6-Dichloro-phenylamino)-1H-benzimidazole-5-carboxylic acid (2,3,4-trichloro-phenyl)-amide]
6 | 100 | O=C(Nc1ccc(Br)cc1)c1cc2[nH]c(Nc3c(Cl)cccc3Cl)nc2c(F)c1F [Example 395, N-(4-Bromophenyl)-2-(2,6-dichlorophenylamino)-4,5-difluoro-1H-benzimidazole-6-carboxamide]
7 | 100 | COc1cc2c(cc1C(=O)Nc1ccc(Br)cc1)nc(Nc1c(Cl)cccc1Cl)n2C [Example 359, 2-(2,6-Dichlorophenylamino)-6-methoxy-1-methyl-N-(4-bromo-phenyl)-1H-benzimidazole-5-carboxamide]
8 | 94 | O=C(N[C@H]1CC[C@H](C(F)(F)F)CC1)c1cc2nc(Nc3c(F)ccc(F)c3Cl)[nH]c2cc1OCC(F)(F)F [Example 594, 2-(2-Chloro-3,6-difluoro-phenylamino)-N-(4-trans-trifluoromethyl-cyclohex-1-yl)-6-(2,2,2-trifluorethoxy)-1H-benzimidazole-5-carboxamide]
9 | 84 | CC(C)NC(=O)c1cc(Br)c2[nH]c(Nc3c(Cl)cccc3Cl)nc2c1 [Example 570, 7-Bromo-N-isopropyl-2-(2,6-dichlorophenylamino)-1H-benzimidazole-5-carboxamide]
10 | 97 | Cn1c(Nc2c(F)cccc2Cl)nc2cc(C(=O)NC3CCC4(CC3)CC4)ccc21 [Example 441, 2-(2-Chloro-6-fluorophenylamino)-1-methyl-N-(spiro[2.5]octan-6-yl)-1H-benzimidazole-5-carboxamide]
11 | 100 | CC(C)CCCNC(=O)c1cc2nc(Nc3c(Cl)cccc3Cl)n(C)c2cc1F [Example 408, 2-(2,6-Dichlorophenylamino)-6-fluoro-1-methyl-N-(4-methylpentyl)-1H-benzimidazole-5-carboxamide]
12 | 100 | O=C(Nc1cccc(Cl)c1)c1cc(Br)c2[nH]c(Nc3c(Cl)cccc3Cl)nc2c1 [compound 351]
13 | 100 | Cn1c(Nc2c(F)cccc2Cl)nc2cc(C(=O)Nc3ccc(Br)cc3)ccc21 [Example 381, N-(4-Bromophenyl)-2-(2-chloro-6-fluorophenylamino)-1-methyl-1H-benzimidazole-5-carboxamide]
14 | 100 | Cn1c(Nc2ccccc2OC(F)(F)F)nc2cc(C(=O)Nc3ccc(Br)cc3)ccc21 [Example 320, 1-Methyl-2-(2-trifluoromethoxy-phenylamino)-1H-benzimidazole-5-carboxylic acid (4-bromo-phenyl)-amide]
15 | 97 | O=C(Nc1ccc(Br)cc1)c1cc2nc(Nc3c(Cl)ccc(Cl)c3F)[nH]c2cc1OCC(F)(F)F [Example 593, 2-(3,6-Dichloro-2-fluoro-phenylamino)-N-(4-bromophenyl)-6-(2,2,2-trifluorethoxy)-1H-benzimidazole-5-carboxamide]
16 | 100 | CCC1CCC(NC(=O)c2cc3nc(Nc4c(Cl)cccc4Cl)n(C)c3cc2F)C1 (stereo not drawn) [Example 412, 2-(2,6-Dichlorophenylamino)-N-(3-ethylcyclopentyl)-6-fluoro-1-methyl-1H-benzimidazole-5-carboxamide]
17 | 100 | COc1cc2[nH]c(Nc3c(Cl)cc(F)cc3Cl)nc2cc1C(=O)NCc1ncccc1C(F)(F)F [Example 580, 2-(2,6-Dichloro-4-fluoro-phenylamino)-6-methoxy-N-((3-trifluoromethyl-pyridin-2-yl)-methyl)-1H-benzimidazole-5-carboxamide]
18 | 81 | COc1ccnc(CNC(=O)c2cc3nc(Nc4c(Cl)cccc4Cl)n(C)c3cc2F)c1 [Example 569, 2-(2,6-Dichlorophenylamino)-6-fluoro-N-((4-methoxypyridin-2-yl)methyl)-1-methyl-1H-benzimidazole-5-carboxamide]

The next lines start with the compound.

Row | Structure (SMILES) | inhibition at 10 µM [%]
19 | NCCn1c(Nc2c(Cl)cccc2Cl)nc2cc(C(=O)Nc3cc(Cl)ccn3)ccc21 [Example 211, 2-(2,6-Dichloro-phenylamino)-1-(2-amino-ethyl)-1H-benzimidazole-5-carboxylic acid (4-chloro-pyridin-2-yl)-amide (trifluoroacetate)] | 100
20 | O=C(Nc1cccc(C(F)(F)F)n1)c1ccc2[nH]c(Nc3c(Cl)cccc3Cl)nc2c1 [Example 305, 2-(2,6-Dichloro-phenylamino)-1H-benzimidazole-5-carboxylic acid (6-trifluoromethyl-pyridin-2-yl)-amide] | 100
21 | COc1ccnc(NC(=O)c2ccc3[nH]c(Nc4c(Cl)cccc4Cl)nc3c2)c1 [Example 188, 2-(2,6-Dichloro-phenylamino)-1H-benzimidazole-5-carboxylic acid (4-methoxy-pyridin-2-yl)-amide] | 96
22 | O=C(Nc1cc(C(F)(F)F)ccc1Cl)c1ccc2[nH]c(Nc3c(Cl)cccc3Cl)nc2c1 [Example 292, 2-(2,6-Dichloro-phenylamino)-1H-benzimidazole-5-carboxylic acid (2-chloro-5-trifluoromethyl-phenyl)-amide] | 100
23 | O=C(N[C@H]1CC[C@H](C(F)(F)F)CC1)c1ccc2[nH]c(Nc3c(Cl)cccc3Cl)nc2c1 [Example 161, 2-(2,6-Dichloro-phenylamino)-1H-benzimidazole-5-carboxylic acid (trans-4-trifluoromethyl-cyclohexyl)-amide] | 98
24 | O=C(Nc1cccc(Cl)c1)c1cc2[nH]c(Nc3c(Cl)cccc3Cl)nc2cc1F [Example 143, 2-(2,6-Dichloro-phenylamino)-6-fluoro-3H-benzimidazole-5-carboxylic acid (3-chloro-phenyl)-amide] | 100
25 | CC(=O)NCCn1c(Nc2c(Cl)cccc2Cl)nc2cc(C(=O)Nc3cc(Cl)ccn3)ccc21 [Example 278, 2-(2,6-Dichloro-phenylamino)-1-(2-acetylamino-ethyl)-1H-benzimidazole-5-carboxylic acid (4-chloro-pyridin-2-yl)-amide] | 92
26 | CC(=O)NCCCn1c(Nc2c(Cl)cccc2Cl)nc2cc(C(=O)Nc3cc(Cl)ccn3)ccc21 [Example 268, 2-(2,6-Dichloro-phenylamino)-1-(3-acetylamino-propyl)-1H-benzimidazole-5-carboxylic acid (4-chloro-pyridin-2-yl)-amide] | 94
27 | O=C(N[C@H]1CC[C@@H](C(F)(F)F)CC1)c1cc2nc(Nc3c(Cl)cccc3Cl)[nH]c2cc1F [Example 169, 2-(2,6-Dichloro-phenylamino)-6-fluoro-1H-benzimidazole-5-carboxylic acid (cis-4-trifluoromethyl-cyclohexyl)-amide] | 94
28 | Cn1c(Nc2c(Cl)cccc2Cl)nc2cc(C(=O)Nc3ccc(S(C)(=O)=O)cc3)ccc21 [Example 250, 2-(2,6-Dichloro-phenylamino)-1-methyl-1H-benzimidazole-5-carboxylic acid (4-methanesulfonyl-phenyl)-amide] | 73
29 | Cc1cc(C)nc(NC(=O)c2ccc3[nH]c(Nc4ccccc4C(F)(F)F)nc3c2)c1 [Example 118, 2-(2-Trifluoromethyl-phenylamino)-1H-benzimidazole-5-carboxylic acid (4,6-dimethyl-pyridin-2-yl)-amide] | 80
30 | Cn1c(Nc2c(Cl)cccc2Cl)nc2cc(C(=O)NCC3CCCC3)ccc21 [Example 243, 2-(2,6-Dichloro-phenylamino)-1-methyl-1H-benzimidazole-5-carboxylic acid cyclopentylmethyl-amide] | 93
31 | O=C(Nc1ccccc1)c1ccc2[nH]c(Nc3c(Cl)cccc3Cl)nc2c1 [Example 1, 2-(2,6-Dichloro-phenylamino)-1H-benzimidazole-5-carboxylic acid phenylamide] | 100
32 | O=C(Nc1ccccc1)c1ccc2[nH]c(Nc3cc(Cl)ccc3Cl)nc2c1 [Example 7, 2-(2,5-Dichloro-phenylamino)-1H-benzimidazole-5-carboxylic acid-phenylamide] | 100
33 | O=C(Nc1cc(Cl)ccn1)c1ccc2c(c1)nc(Nc1c(Cl)cccc1Cl)n2CC1CNC1 [Example 209, 2-(2,6-Dichloro-phenylamino)-(1-azetidin-3-ylmethyl)-1H-benzimidazole-5-carboxylic acid (4-chloro-pyridin-2-yl)-amide (trifluoroacetate)] | 100

From US8916599B2, “1H-benz imidazole-5-carboxamides as anti-inflammatory agents” (Orexo AB, priority 2008, dated 2014)
